Results published in patent US11104661B1, “Inhibiting human integrin (α-4) (β-7)” (Morphic Therapeutic, Inc., priority 2019, dated 2021).

Molecular target: T1, integrin α4β7 (Homo sapiens, UniProt P13612+P26010)
T1 sequence (P13612 35-977 limits assumed): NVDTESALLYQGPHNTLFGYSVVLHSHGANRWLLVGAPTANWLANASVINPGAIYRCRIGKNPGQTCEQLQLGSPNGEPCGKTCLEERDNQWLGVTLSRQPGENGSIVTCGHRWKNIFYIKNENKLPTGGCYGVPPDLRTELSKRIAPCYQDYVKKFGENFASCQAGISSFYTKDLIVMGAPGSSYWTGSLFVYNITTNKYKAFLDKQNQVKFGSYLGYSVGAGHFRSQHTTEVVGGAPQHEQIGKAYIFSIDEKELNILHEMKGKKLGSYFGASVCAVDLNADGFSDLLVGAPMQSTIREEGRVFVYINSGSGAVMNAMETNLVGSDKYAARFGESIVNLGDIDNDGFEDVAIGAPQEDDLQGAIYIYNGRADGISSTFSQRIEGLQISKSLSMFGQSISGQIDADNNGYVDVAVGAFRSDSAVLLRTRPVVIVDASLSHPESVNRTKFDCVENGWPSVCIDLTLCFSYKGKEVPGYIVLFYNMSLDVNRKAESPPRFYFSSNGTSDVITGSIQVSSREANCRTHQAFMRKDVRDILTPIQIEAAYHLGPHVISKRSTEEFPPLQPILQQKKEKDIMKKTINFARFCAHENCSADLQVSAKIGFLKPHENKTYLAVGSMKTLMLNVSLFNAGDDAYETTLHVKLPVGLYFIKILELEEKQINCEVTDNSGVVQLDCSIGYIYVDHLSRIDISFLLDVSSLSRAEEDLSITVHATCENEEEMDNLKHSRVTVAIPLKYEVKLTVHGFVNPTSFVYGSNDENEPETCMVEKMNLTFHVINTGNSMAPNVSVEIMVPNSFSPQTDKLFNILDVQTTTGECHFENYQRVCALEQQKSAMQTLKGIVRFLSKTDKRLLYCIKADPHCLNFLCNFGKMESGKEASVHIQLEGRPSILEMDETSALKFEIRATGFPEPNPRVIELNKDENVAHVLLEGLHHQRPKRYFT
T1 sequence (P26010 20-723 limits assumed): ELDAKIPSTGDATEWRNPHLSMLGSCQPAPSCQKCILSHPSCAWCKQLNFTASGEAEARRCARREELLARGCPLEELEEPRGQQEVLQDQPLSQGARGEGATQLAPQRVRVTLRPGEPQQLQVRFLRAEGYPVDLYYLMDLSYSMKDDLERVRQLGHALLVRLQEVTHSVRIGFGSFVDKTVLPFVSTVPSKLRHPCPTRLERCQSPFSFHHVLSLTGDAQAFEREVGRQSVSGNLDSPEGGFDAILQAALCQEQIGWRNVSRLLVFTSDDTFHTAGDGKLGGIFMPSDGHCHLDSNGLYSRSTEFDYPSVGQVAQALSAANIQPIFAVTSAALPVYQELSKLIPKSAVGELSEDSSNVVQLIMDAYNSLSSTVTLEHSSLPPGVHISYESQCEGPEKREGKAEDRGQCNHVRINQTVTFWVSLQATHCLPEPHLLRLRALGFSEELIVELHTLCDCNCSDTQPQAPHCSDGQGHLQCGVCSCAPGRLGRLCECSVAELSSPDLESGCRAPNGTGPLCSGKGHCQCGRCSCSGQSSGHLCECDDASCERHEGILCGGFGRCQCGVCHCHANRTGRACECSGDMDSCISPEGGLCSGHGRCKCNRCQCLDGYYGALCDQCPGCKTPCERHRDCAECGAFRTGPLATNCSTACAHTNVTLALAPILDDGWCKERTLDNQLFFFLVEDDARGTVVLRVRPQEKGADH
Experiment: Fluorescence polarization (FP) assay for α4β7 binding (Example 5)
Conditions: competition with fluorescein-labeled peptide, 6.5 nM integrin α4β7, 2 mM manganese chloride
Protocol: Compounds of Formula (I) were evaluated using a fluorescent polarization (FP) assay. FP assays are used to evaluate potency of compounds on purified protein. The FP assays consists of measuring purified integrin αβ heterodimer ecto domains or headpiece binding to surrogate or truncated ligands.
Three in vitro assays were used to examine the α4β7 mechanistic process used by cells: 1) ligand:receptor affinity, 2) the avidity of those interactions on a cell's surface, and 3) how those interactions fare under an imposing force. In Example 5, a Fluorescence Polarization (FP) assay is used to measure compound activity through binding competition with the fluorescein-labeled peptide. In Example 6, the potency of compounds against α4β7 is measured in the cell-based ligand binding assay (LBA), using RPMI 8866 cells incubated with the compound samples in competition with soluble MAdCAM-1 ligand. In Example 7, activity of compounds is evaluated in a cell adhesion assay that mechanistically tests what occurs in vivo when trafficking cells utilize α4β7 to adhere to MAdCAM-1 expressing HEVs of the gut during the extravasation process. In the cell adhesion assay of Example 7, a MAdCAMI1-(Fc) is coated on plastic, and α4β7 expressing cells (RPMI-8866) are allowed to adhere to the coated surface in the presence of the test compounds. Next, the force of washing with buffer is applied to cells thereby testing the strength of that adhesion. Unattached cells are removed and the remaining adherent cells are quantified.
Fluorescence Polarization (FP) assays were used to measure compound activity through binding competition with the fluorescein-labeled peptide […]{Lys(FITC)}. In the assay, 6.5 nM of integrin α4β7 was incubated with the test compound in 2 mM manganese chloride, 0.1 mM calcium chloride, 20 mM HEPES buffer at pH 7.3, 150 mM sodium chloride, 0.01% Triton X-100, 2% DMSO, and 3 nM of the fluorescein-labeled peptide. Running the assays in 384-well plates, the integrin protein was pre-incubated with the test compounds for 15 minutes at 22° C. before the fluorescein-labeled peptide was added. After the fluorescein-labeled peptide was added, the assay was incubated at 22° C. for 1 hour and fluorescence polarization was measured. IC50 values were determined by nonlinear regression, four-parameter curve fitting.

| SMILES | IC50 (Table 4 comparative compounds) | IC50 (Table 3) |
| --- | --- | --- |
| Cc1cccc(C)c1-c1cccc([C@H](CC(=O)O)NC(=O)[C@H](CC(C)C)n2cc(CCN(C)C)ccc2=O)c1 | ≤ 0.01 µM |  |
| Cc1cccc(C)c1-c1cccc([C@H](CC(=O)O)NC(=O)[C@H](CC(C)C)n2ccc(CCN(C)C)cc2=O)c1 | ≤ 0.01 µM |  |
| Cc1cccc(C)c1-c1cccc([C@H](CC(=O)O)NC(=O)[C@H](CC(C)C)n2cccc(CCN(C)C)c2=O)c1 | ≤ 0.01 µM |  |
| Cc1cccc(C)c1-c1cccc([C@H](CC(=O)O)NC(=O)[C@H](CC(C)C)n2cc(CN3CC[C@@H](F)C3)ccc2=O)c1 | ≤ 0.01 µM |  |
| Cc1cccc(C)c1-c1cncc([C@H](CC(=O)O)NC(=O)[C@H](CC(C)C)n2ccc(C(F)(F)F)cc2=O)c1 | ≤ 0.01 µM |  |
| Cc1ccn([C@@H](CC(C)C)C(=O)N[C@@H](CC(=O)O)c2cncc(-c3c(C)cccc3C)c2)c(=O)c1 | ≤ 0.01 µM |  |
| Cc1cccc(C)c1-c1cncc([C@H](CC(=O)O)NC(=O)C(CC(C)C)n2cc(C(F)(F)F)ccc2=O)c1 (some centres unmarked) | ≤ 0.01 µM |  |
| Cc1cccc(C)c1-c1cncc([C@H](CC(=O)O)NC(=O)[C@H](CC(C)C)n2cc(CN3CC(F)C3)ccc2=O)c1 | ≤ 0.01 µM |  |
| Cc1cccc(C)c1-c1cncc([C@H](CC(=O)O)NC(=O)[C@H](CC(C)C)N2CC[C@@H](C(F)(F)F)CC2=O)c1 | ≤ 0.01 µM |  |
| CC(C)C[C@@H](C(=O)N[C@@H](CC(=O)O)c1ccc(-c2ccc(F)cc2)cc1)n1cc(CCN(C)C)c(C(F)(F)F)cc1=O | ≤ 0.01 µM |  |
| CC(C)C[C@@H](C(=O)N[C@@H](CC(=O)O)c1ccc(-c2ccc(F)cc2)cc1)n1cc(CCN2CC(F)C2)cc(F)c1=O | ≤ 0.01 µM |  |
| CC(C)C[C@@H](C(=O)N[C@@H](CC(=O)O)c1ccc(-c2ccccc2)cc1)n1cc(CCN2CC(F)C2)cc(F)c1=O | ≤ 0.01 µM |  |
| Cc1ccccc1-c1cccc([C@H](CC(=O)O)NC(=O)[C@H](CC(C)C)n2cccc(C)c2=O)c1 | ≤ 0.01 µM |  |
| CC(C)C[C@@H](C(=O)N[C@@H](CC(=O)O)c1ccc(-c2ccccc2)cc1)n1cc(CCN(C)C)c(C(F)(F)F)cc1=O | 0.01 to 0.5 µM |  |
| Cc1ccccc1-c1cc([C@H](CC(=O)O)NC(=O)[C@H](CC(C)C)n2ccccc2=O)ccc1C | 0.01 to 0.5 µM |  |
| Cc1ccccc1-c1cccc([C@H](CC(=O)O)NC(=O)[C@H](CC(C)C)n2ccncc2=O)c1 | 0.01 to 0.5 µM |  |
| COc1cccc(F)c1-c1cccc([C@H](CC(=O)O)NC(=O)[C@H](CC(C)C)n2cnc3ccccc3c2=O)c1 | 0.01 to 0.5 µM |  |
| Cc1ccccc1-c1cccc([C@H](CC(=O)O)NC(=O)[C@H](CC(C)C)n2ccccc2=O)c1 | 0.01 to 0.5 µM |  |
| Cc1ccccc1-c1cc([C@H](CC(=O)O)NC(=O)C(CC(C)C)n2ccccc2=O)ccn1 (some centres unmarked) | 0.01 to 0.5 µM |  |

| SMILES | IC50 (Table 4 comparative compounds) | IC50 (Table 3) |
| --- | --- | --- |
| COc1ccc([C@H](CC(=O)O)NC(=O)C(CC(C)C)n2ccccc2=O)cc1-c1ccccc1C (some centres unmarked) | 0.01 to 0.5 µM |  |
| Cc1ccc([C@@H](C(=O)N[C@@H](CC(=O)O)c2cncc(-c3c(C)cccc3C)c2)N2CC(C)CCC2=O)cc1 (some centres unmarked) | ≤ 0.01 µM |  |
| Cc1cccc(C)c1-c1cc([C@H](CC(=O)O)NC(=O)[C@H](CC(C)C)n2ccccc2=O)ccn1 | 0.01 to 0.5 µM |  |
| Cc1ccccc1-c1cc([C@H](CC(=O)O)NC(=O)C(CC(C)C)n2ccccc2=O)ccc1C#N (some centres unmarked) | ≤ 0.01 µM |  |
| COC[C@@H](C(=O)N[C@@H](CC(=O)O)c1cccc(-c2c(C)cccc2C)c1)n1ccc(C)cc1=O | 0.01 to 0.5 µM |  |
| Cc1cccc(C)c1-c1cncc([C@H](CC(=O)O)NC(=O)[C@H](CC(C)C)n2ccccc2=O)c1 | ≤ 0.01 µM |  |
| Cc1cc(C)c(-c2cc(C)c(F)c([C@H](CC(=O)O)NC(=O)C(CC(C)C)n3cc(CCN(C)C)c(C(F)(F)F)cc3=O)c2)c(C)c1 (single isomer, unassigned) [AC-P2] |  | ≤ 0.01 µM |
| Cc1cc(-c2c(C)ccc(F)c2C)cc([C@H](CC(=O)O)NC(=O)C(CC(C)C)n2cc(CCN3CCC3)c(C(F)(F)F)cc2=O)c1F (single isomer, unassigned) [AF-P2] |  | ≤ 0.01 µM |
| COc1ccc(C)c(-c2cc(C)c(F)c([C@H](CC(=O)O)NC(=O)C(CC(C)C)n3cc(CCN4CCC4)c(C(F)(F)F)cc3=O)c2)c1C (single isomer, unassigned) [AG-P2] |  | ≤ 0.01 µM |
| Cc1cc(-c2c(C)cccc2C)cc([C@H](CC(=O)O)NC(=O)C(CC(C)C)n2cc(CCN3CC[C@@H](F)C3)cc(F)c2=O)c1F (single isomer, unassigned) [AU-P2] |  | ≤ 0.01 µM |
| Cc1cc(-c2c(C)cccc2C)cc([C@H](CC(=O)O)NC(=O)C(CC(C)C)n2cc(CCN3CC(F)C3)cc(F)c2=O)c1F (single isomer, unassigned) [AV-P2] |  | ≤ 0.01 µM |
| Cc1cccc(C)c1-c1cc([C@H](CC(=O)O)NC(=O)C(CC(C)C)n2cc(CCN3CCC3)c(C(F)(F)F)cc2=O)c(F)c(C(F)(F)F)c1 (single isomer, unassigned) [G-P2] |  | ≤ 0.01 µM |
| Cc1cccc(C)c1-c1cccc([C@H](CC(=O)O)NC(=O)[C@H](CC(C)C)n2cc(CN3CC(F)C3)ccc2=O)c1 [drawing 572] | ≤ 0.01 µM |  |
| Cc1cccc(C)c1-c1cccc([C@H](CC(=O)O)NC(=O)[C@H](CC(C)C)n2cc(CN3CC(F)C3)ccc2=O)c1 [drawing 577] | ≤ 0.01 µM |  |
| Cc1cccc(C)c1-c1cccc([C@H](CC(=O)O)NC(=O)[C@H](CC(C)C)n2cc(CN3CC(F)C3)ccc2=O)c1 [drawing 585] | ≤ 0.01 µM |  |
| Cc1cccc(C)c1-c1cccc([C@H](CC(=O)O)NC(=O)[C@H](CC(C)C)n2cc(CN3CC(F)C3)ccc2=O)c1 [drawing 589] | ≤ 0.01 µM |  |
| Cc1cccc(C)c1-c1cccc([C@H](CC(=O)O)NC(=O)[C@H](CC(C)C)n2cc(CN3CC(F)C3)ccc2=O)c1 [drawing 594] | ≤ 0.01 µM |  |
| Cc1cccc(C)c1-c1cccc([C@H](CC(=O)O)NC(=O)[C@H](CC(C)C)n2cc(CN3CC(F)C3)ccc2=O)c1 [drawing 599] | ≤ 0.01 µM |  |
| Cc1cccc(C)c1-c1cccc([C@H](CC(=O)O)NC(=O)[C@H](CC(C)C)n2cc(CN3CC(F)C3)ccc2=O)c1 [drawing 604] | ≤ 0.01 µM |  |
